Patent publication US6521814B1, “Use of ligands for treatment of diseases responsive to retinoids” (Institut National de la Santa et de la Recherche Medicale, priority 1997, dated 2003)

How the values were obtained:
Assay type in all cases: cell-based, murine
RARα−/− F9 cells [1] = experiment: Morphological differentiation of F9 cell aggregates into visceral endoderm (VE)-like cells (morphology, RT-PCR of markers); set-up: key to proportion of outer layer of cells displaying VE morphology: +++: more than 80%; ++: 50-80%; +: 10-50%; ±: not more than 10%; (−): no visible effect; conditions: 10 d
Excerpt: (§1) Similarly, after 10 d of treatment, >80% of the outer layer of RARα^−/− and RXRα^−/−/RARα^−/− cell aggregates differentiated into VE-like cells, which were indistinguishable from those of WT and RXRα^−/− cells (FIG. 23A, compare f with panels b and d; and Table 9). […] To exclude the possibility that this very poor differentiation of the RXRα^−/−/RARγ^−/− cells could be due to some clonal variation, rather than the presence of the RXRα-null mutation in the RARγ-null background, we expressed the RXRα cDNA in RXRα^−/−/RARγ^−/− cells.
(§2) F9 cells were cultured and induced to differentiate into primitive, parietal and visceral endoderm-like cells as previously described (Boylan, J., et al., Proc. Natl. Acad. Sci. USA 90:9601-9605 (1993); Clifford, J., et al., EMBO J. 15:4142-4155 (1996)).
(§3) RNA preparation, RT-PCR, and Southern blotting were performed as previously described (Bouillet, P., et al., Dev. Biol. 170:420-433 (1995); Roy, B., et al., Mol. Cell. Biol. 15:6481-6487 (1995)). The PCR primers and end-labeled oligonucleotide probes for collagen IVα1, laminin B1, α-fetoprotein (AFP), and 36B4, were described previously (Clifford, J., et al ., EMBO J. 15:4142-4155 (1996)). Transcript levels were quantified using a BAS 2000 bioimaging analyzer (Fuji Ltd., Tokyo, Japan), and were normalized to the corresponding 36B4 signals.

WT F9 cells [2] = experiment: as above; set-up: key to proportion of outer layer of cells displaying VE morphology: +++: more than 80%; ++: 50-80%; +: 10-50%; ±: not more than 10%; (−): no visible effect; conditions: WT, 10 d
Excerpt: as §1, §2, §3

RARγ−/− F9 cells [3] = experiment: as above; set-up: key to proportion of outer layer of cells displaying VE morphology: +++: more than 80%; ++: 50-80%; +: 10-50%; ±: not more than 10%; (−): no visible effect; conditions: RARγ−/−, 10 d
Protocol: as §2, §3

RARα−/− F9 cells [4] = experiment: Proliferation of F9 cells in monolayer culture (cell counting, [3H]thymidine incorporation, cell cycle FACS); conditions: 6 d
Protocol: (§4) Cells were plated in triplicate 3-cm culture wells (5×10^2 cells per well), and cell counting experiments were performed as previously described (Clifford, J., et al., EMBO J. 15:4142-4155 (1996)). [^3H]Thymidine incorporation assays were performed essentially as described (Clifford, J., et al., EMBO J. 15:4142-4155 (1996)), with the following modifications. […] The cell cycle profile of WT and mutant cells was determined as previously described (Clifford, J., et al. EMBO J. 15:4142-4155 (1996)).

RARγ−/− F9 cells [5] = experiment: as above; conditions: 6 d
Protocol: as §4

WT F9 cells [6] = experiment: as above; conditions: 6 d
Protocol: as §4

RXRα−/− F9 cells [7] = experiment: as above; conditions: 6 d
RXRα−/−/RARα−/− F9 cells [8] = experiment: as above; conditions: 6 d
RXRα−/−/RARγ−/− F9 cells = experiment: as above; conditions: 6 d
RARγ−/− F9 cells [9] = experiment: Apoptosis of F9 cells (Hoechst 33258 staining, FACS); conditions: 6 d
Protocol: (§5) Apoptosis was analyzed by both Hoechst staining of nuclei and FACS® analysis, as previously described (Clifford, J., et al., EMBO J. 15:4142-4155 (1996)).

WT F9 cells [10] = experiment: as above; conditions: 6 d
Protocol: as §5

RARα−/− F9 cells [11] = experiment: as above; set-up: key: (−): no visible effect; conditions: 6 d
Protocol: as §5

RXRα−/− F9 cells [12] = experiment: as above; conditions: 100 nM, 6 d
RXRα−/−/RARα−/− F9 cells [13] = experiment: as above; conditions: 100 nM, 6 d

## CC1(C)CC=C(c2ccccc2)c2cc(/C=C/c3ccc(C(=O)O)cc3)ccc21 [RARβ agonist]
RARα−/− F9 cells [1]; 500 nM
  proportion of outer layer of cells displaying VE morphology: (−)
WT F9 cells [2]; 500 nM
  proportion of outer layer of cells displaying VE morphology: (−)
RARγ−/− F9 cells [3]; 500 nM
  proportion of outer layer of cells displaying VE morphology: ± (not more than 10%)
RARα−/− F9 cells [4]; 500 nM
  number of cells in percent relative to cells grown in 0.1% ethanol: 100%
RARγ−/− F9 cells [5]; 50 nM
  number of cells in percent relative to cells grown in 0.1% ethanol: 100%
RARγ−/− F9 cells [5]; 500 nM
  number of cells in percent relative to cells grown in 0.1% ethanol: 100%
WT F9 cells [6]; 50 nM
  number of cells in percent relative to cells grown in 0.1% ethanol: 100%
WT F9 cells [6]; 500 nM
  number of cells in percent relative to cells grown in 0.1% ethanol: 100%
RXRα−/− F9 cells [7]; 50 nM
  number of cells in percent relative to cells grown in 0.1% ethanol: 100%
RXRα−/− F9 cells [7]; 500 nM
  number of cells in percent relative to cells grown in 0.1% ethanol: 100%
RXRα−/−/RARα−/− F9 cells [8]; 500 nM
  number of cells in percent relative to cells grown in 0.1% ethanol: 100%
RXRα−/−/RARγ−/− F9 cells; 500 nM
  number of cells in percent relative to cells grown in 0.1% ethanol: 120%
RARγ−/− F9 cells [9]; 500 nM
  proportion of apoptotic nuclei and subcellular fragments (Hoechst 33258): (−)
WT F9 cells [10]; 500 nM
  proportion of apoptotic nuclei and subcellular fragments (Hoechst 33258): (−)
RARα−/− F9 cells [11]; 500 nM
  proportion of apoptotic nuclei and subcellular fragments (Hoechst 33258): (−)

## CC1(C)CCC(C)(C)c2cc(NC(=O)c3ccc(C(=O)O)cc3)ccc21 [panRAR agonist]
RARγ−/− F9 cells [9]; 100 nM
  proportion of apoptotic nuclei and subcellular fragments (Hoechst 33258): ± (<1%)
WT F9 cells [10]; 100 nM
  proportion of apoptotic nuclei and subcellular fragments (Hoechst 33258): + (>1-10%)
RXRα−/− F9 cells [12]
  proportion of apoptotic nuclei and subcellular fragments (Hoechst 33258): ±* (asterisks less than that in combination with 1 μM panRXR agonist)
RARα−/− F9 cells [11]; 100 nM
  proportion of apoptotic nuclei and subcellular fragments (Hoechst 33258): + (>1-10%)
RXRα−/−/RARα−/− F9 cells [13]
  proportion of apoptotic nuclei and subcellular fragments (Hoechst 33258): ±* (asterisks less than that in combination with 1 μM panRXR agonist)

## CC1(C)CCC(C)(C)c2cc(C3(c4ccc(C(=O)O)cc4)OCCO3)ccc21 [panRXR agonist]
RARα−/− F9 cells [1]; 1 μM
  proportion of outer layer of cells displaying VE morphology: (−)
WT F9 cells [2]; 1 μM
  proportion of outer layer of cells displaying VE morphology: (−)
RARγ−/− F9 cells [3]; 1 μM
  proportion of outer layer of cells displaying VE morphology: (−)
RARα−/− F9 cells [4]; 1 μM
  number of cells in percent relative to cells grown in 0.1% ethanol: 100%
RARγ−/− F9 cells [5]; 1 μM
  number of cells in percent relative to cells grown in 0.1% ethanol: 100%
WT F9 cells [6]; 1 μM
  number of cells in percent relative to cells grown in 0.1% ethanol: 100%
RXRα−/− F9 cells [7]; 1 μM
  number of cells in percent relative to cells grown in 0.1% ethanol: 100%
RXRα−/−/RARα−/− F9 cells [8]; 1 μM
  number of cells in percent relative to cells grown in 0.1% ethanol: 100%
RXRα−/−/RARγ−/− F9 cells; 1 μM
  number of cells in percent relative to cells grown in 0.1% ethanol: 100%
RARγ−/− F9 cells [9]; 1 μM
  proportion of apoptotic nuclei and subcellular fragments (Hoechst 33258): (−)
WT F9 cells [10]; 1 μM
  proportion of apoptotic nuclei and subcellular fragments (Hoechst 33258): (−)
RARα−/− F9 cells [11]; 1 μM
  proportion of apoptotic nuclei and subcellular fragments (Hoechst 33258): (−)
